Measured values: patent US11696893B2, “Preparation comprising vonoprazan” (Takeda Pharmaceutical Company Limited, priority 2017, dated 2023)

Legend:
Type in all cases: physicochemical
[1] = Dissolution profile of compound A, fumaric acid, succinic acid (Rotating Basket 100 rpm); details: water-insoluble polymer coated particle of Example 1 or coagulation inhibiting substance coated particle of Reference Example 3, 60 mg compound A; FIG. 12-13
Method: The water-insoluble polymer coated particle of Example 1 or the coagulation inhibiting substance coated particle of Reference Example 3, each of which contained 60 mg of compound A, was subjected to a dissolution test using Rotating Basket at 100 rpm and in the same manner as in Experimental Example 1. The dissolution amounts of fumaric acid or succinic acid as well as compound A were also measured. As for fumaric acid and succinic acid, the residual rate of each organic acid in the particles were inversely calculated from the dissolution rate, and the value of the maximum dissolution amount was normalized assuming 0% of the residual rate.

[2] = Influence of concentration of fumaric acid or monosodium fumarate on dissolution amount of compound A (common ion effect); details: JP2 with various concentrations of fumaric acid or monosodium fumarate, room temperature, 1 hr; FIG. 11
Method: Solutions containing various concentrations of fumaric acid or monosodium fumarate dissolved in the Japanese Pharmacopoeia dissolution test 2nd fluid were prepared. Then, 50 mg of compound A was measured and charged in a 10 mL plastic tube and each of the above-mentioned solution (5 mL) was added and the mixture was vigorously shaken at room temperature for 1 hr. The suspension after shaking was filtered, diluted 100-fold and subjected to HPLC measurement. The dissolution amount of compound A was measured.

[3] = Confirmation of dissolution control mechanism-1 (dissolution test, paddle 100 rpm); details: water-soluble polymer coated particle 3 of Reference Example 2, FIG. 14
Method: The water-soluble polymer coated particle 3 obtained in Reference Example 2 and containing 60 mg of compound A was subjected to a dissolution test using paddle at 100 rpm and in the same manner as in Experimental Example 1. The dissolution media was the Japanese Pharmacopoeia dissolution test 2nd fluid, the Japanese Pharmacopoeia dissolution test 2nd fluid added with 10% (W/W) sodium carbonate, the Japanese Pharmacopoeia dissolution test 2nd fluid added with 13% (W/W) succinic acid, or the Japanese Pharmacopoeia dissolution test 2nd fluid added with 0.6% (W/W) fumaric acid.

[4] = Dissolution amount of compound A in saturated organic acid; details: room temperature, shaken 1 hr
Method: Citric acid, succinic acid, fumaric acid or malic acid was dissolved and saturated in the Japanese Pharmacopoeia dissolution test 2nd fluid (JP2), and filtered. Successively, compound A (0.4 g) was added to a filtrate (10 mL) saturated with an organic acid and the mixture was shaken at room temperature for 1 hr. The solution after shaking was filtered, diluted 50-fold with the Japanese Pharmacopoeia dissolution test 2nd fluid, and the diluted solution was diluted 20-fold with the Japanese Pharmacopoeia dissolution test 2nd fluid. The solution obtained by diluting twice was subjected to HPLC measurement and the dissolution amount of compound A was measured.

## CNCc1cc(-c2ccccc2F)n(S(=O)(=O)c2cccnc2)c1.O=C(O)/C=C/C(=O)O [compound A, 1-[5-(2-Fluorophenyl)-1-(pyridin-3-ylsulfonyl)-1H-pyrrol-3-yl]-N-methylmethanamine monofumarate]
[1]
  start of dissolution of compound A relative to organic acid: started after dissolution of fumaric acid or succinic acid
[2]
  dissolution amount of compound A: influenced by the concentration of fumaric acid or monosodium fumarate
[3]; JP2 added with 10% (W/W) sodium carbonate
  dissolution of compound A: suppressed dissolution
[3]; JP2 added with 13% (W/W) succinic acid or 0.6% (W/W) fumaric acid
  dissolution of compound A: did not show a dissolution suppressive action
[4]; JP2, saturated organic acid: none
  concentration (dissolution amount of compound A): 5.22 µg·mL
[4]; JP2 saturated with citric acid
  concentration (dissolution amount of compound A): 26.30 µg·mL
[4]; JP2 saturated with fumaric acid, listed as Compound A, monofumarate
  concentration (dissolution amount of compound A): low concentration
[4]; JP2 saturated with fumaric acid, monofumarate
  concentration (dissolution amount of compound A): 0.67 µg·mL
[4]; JP2 saturated with malic acid
  concentration (dissolution amount of compound A): 26.64 µg·mL
